Results published in PubChem BioAssay AID651790 (The Scripps Research Institute Molecular Screening Center, 2012).
The source made the active and inactive calls. The rule behind the calls is not given here.

System: cells with GAA30 frataxin promoter-luciferase, luminescence
Test: GAA30 FXN promoter reporter activators, dose response, counter-screen for GAA850 frataxin promoter activators, cell-based, luminescence, GAA30 repeat (AID 651790)

| SMILES | EC50 |
| --- | --- |
| COc1ccc(-c2nnc(Nc3nc4cc(OC)ccc4s3)o2)c(OC)c1 | > 59.6 µM (inactive) |
| COc1ccccc1NC(=O)c1cnc(SCC(=O)Nc2nc3ccccc3s2)n(C)c1=O | > 59.6 µM (inactive) |
| COc1ccccc1NC(=O)c1cnc(SCC(=O)NCCc2ccccc2)n(C)c1=O | > 59.6 µM (inactive) |
| Clc1ccc(-c2nnc(Nc3nc4cc5c(cc4s3)OCO5)o2)cc1 | > 59.6 µM (inactive) |
| Fc1ccc(-c2nnc(Nc3nc4c(F)cccc4s3)o2)cc1 | 0.634 µM |
| COc1ccc(-c2nnc(Nc3nc4c(OC)cccc4s3)o2)c(OC)c1 | > 59.6 µM (inactive) |
| CSc1ccc2nc(Nc3nnc(-c4ccc5c(c4)OCCO5)o3)sc2c1 | > 59.6 µM (inactive) |
| COc1ccc(-c2nnc(Nc3nc4ccc(SC)cc4s3)o2)c(OC)c1 | > 59.6 µM (inactive) |
| Cn1c(SCC(=O)NCC2CCCO2)ncc(C(=O)Nc2ccccc2)c1=O (stereo not drawn) | > 59.6 µM (inactive) |
| COc1ccccc1NC(=O)c1cnc(SCC(=O)NCc2ccccc2)n(C)c1=O | > 59.6 µM (inactive) |
| COc1cccc2sc(Nc3nnc(-c4ccccc4)o3)nc12 | > 59.6 µM (inactive) |
| COc1ccccc1CNC(=O)CSc1ncc(C(=O)Nc2ccccc2)c(=O)n1C | > 59.6 µM (inactive) |
| COc1ccccc1-c1nnc(Nc2nc3c(OC)cccc3s2)o1 | > 59.6 µM (inactive) |
| Cc1ccc(NC(=O)c2cnc(SCC(=O)Nc3cccc(C(F)(F)F)c3)n(C)c2=O)cc1C | 28.7 µM (inactive) |
| COc1ccccc1NC(=O)c1cnc(SCC(=O)Nc2cc(C)on2)n(C)c1=O | > 59.6 µM (inactive) |
| COc1ccccc1NC(=O)c1cnc(SCC(=O)NCC2CCCO2)n(C)c1=O (stereo not drawn) | > 59.6 µM (inactive) |
| COc1ccc(-c2nnc(Nc3nc4c(OC)cccc4s3)o2)cc1 | > 59.6 µM (inactive) |
| Clc1ccccc1-c1nnc(Nc2nc3cc4c(cc3s2)OCO4)o1 | 53.1 µM (inactive) |
| COc1ccccc1NC(=O)c1cnc(SCC(=O)NCc2ccc3c(c2)OCO3)n(C)c1=O | > 59.6 µM (inactive) |
| COc1ccc(-c2nnc(Nc3nc4ccc(OC)cc4s3)o2)c(OC)c1 | > 59.6 µM (inactive) |
| COc1cccc2sc(Nc3nnc(-c4ccccc4Cl)o3)nc12 | > 59.6 µM (inactive) |
| Cn1c(SCC(=O)NCC2CCCO2)ncc(C(=O)Nc2ccc(F)cc2)c1=O (stereo not drawn) | > 59.6 µM (inactive) |
| CSc1ccc2nc(Nc3nnc(-c4ccccc4Cl)o3)sc2c1 | 27.6 µM (inactive) |
| Fc1cccc2sc(Nc3nnc(-c4ccccc4Cl)o3)nc12 | 4.95 µM |
| COc1ccccc1NC(=O)c1cnc(SCC(=O)Nc2ccc3c(c2)OCO3)n(C)c1=O | > 59.6 µM (inactive) |
| Fc1ccc2nc(Nc3nnc(-c4ccccc4Cl)o3)sc2c1 | > 59.6 µM (inactive) |
| CCc1nnc(NC(=O)CSc2ncc(C(=O)Nc3ccc(C)c(C)c3)c(=O)n2C)s1 | > 59.6 µM (inactive) |
| COc1ccc(-c2nnc(Nc3nc4ccc(F)cc4s3)o2)c(OC)c1 | > 59.6 µM (inactive) |
